Assay results published in patent US20080262031A1, “4-Aminoquinoline Derivatives as Antimalarials” (CTG PHARMA S.R.L., priority 2005, published 2008).
Values after ≈ are worked out from the molar mass of the structure shown. Read-outs that look alike come from different tables or passages of the source.

How the values were obtained:
[1] = tested on: chloroquine-sensitive (CQ-S) Plasmodium falciparum strain D10; assay: in vitro antimalarial activity on chloroquine-sensitive strain D10; type: cell-based
[2] = tested on: chloroquine-resistant (CQ-R) Plasmodium falciparum strain W2; assay: in vitro antimalarial activity on chloroquine-resistant strain W2; type: cell-based
[3] = P. falciparum strain D10, chloroquine-sensitive, n = 4 ± SD, read-out: D10 (CQ-S) IC50
[4] = P. falciparum strain W2, chloroquine-resistant, n = 4 ± SD, read-out: W2 (CQ-R) IC50

`CCN(CC)CCCC(C)Nc1ccnc2cc(Cl)ccc12` (stereo not shown) [Chloroquine, chloroquine, reference compound] gave an IC50 ([1]; D10, read-out: D10 (CQ-S) IC50) of 0.0097 ± 0.0036 µg/mL (≈ 0.0303 µM) and an IC50 ([2]; W2, read-out: W2 (CQ-R) IC50) of 0.17 ± 0.0413 µg/mL (≈ 0.532 µM).

In the case of `Clc1ccc2c(NCCC34CCCN3CCC4)ccnc2c1` [Example 1, N-(7-chloro-quinolin-4-yl)-2-(tetrahydropyrrolizin-7a-yl)-ethylamine], the IC50 [1, 3] is reported as 0.0017 ± 0.0014 µg/mL (≈ 0.00538 µM) and the IC50 [2, 4] is reported as 0.0173 ± 0.0024 µg/mL (≈ 0.0548 µM).

Compound `Clc1ccc2c(NCC34CCCN3CCC4)ccnc2c1` [Example 2, N-(7-chloro-quinolin-4-yl)-(tetrahydropyrrolizin-7a-yl)-methylamine] has an IC50 [1, 3] of 0.0092 ± 0.0022 µg/mL (≈ 0.0305 µM) and an IC50 [2, 4] of 0.0087 ± 0.0035 µg/mL (≈ 0.0288 µM).

`Oc1cc(Nc2ccnc3cc(Cl)ccc23)ccc1CNC[C@@H]1CCCN2CCCC[C@H]12` [Example 3] showed an IC50 [1, 3] of 0.0103 ± 0.0019 µg/mL (≈ 0.0228 µM) and an IC50 [2, 4] of 0.0114 ± 0.0021 µg/mL (≈ 0.0253 µM).

`Oc1cc(Nc2ccnc3cc(Cl)ccc23)ccc1CNCCC12CCCN1CCC2` [Example 4] showed an IC50 [1, 3] of 0.0172 ± 0.0019 µg/mL (≈ 0.0394 µM) and an IC50 [2, 4] of under 0.08 µg/mL.
